What follows are molecules tested on acute HIV infection of T-lymphoid cells (assay: Assay for inhibition of HIV replication (spread assay)). Settings: Human immunodeficiency virus 1, T-lymphoid, read-out: IC95, spread assay.
Type: cell-based
Procedure: An assay for the inhibition of acute HIV infection of T-lymphoid cells (alternatively referred to herein as the “spread assay”) was conducted in accordance with Vacca, J. P. et al., Proc. Natl. Acad. Sci. USA 1994, 91: 4096. […] The compounds set forth in the other Examples were not tested in the spread assay.

| SMILES | IC95 |
| --- | --- |
| O=C(Nc1[nH]c2ccc(Br)cc2c1S(=O)(=O)N1CCCC1)N1CCC1 [Example 96, N-[5-bromo-3-(pyrrolidin-1-ylsulfonyl)-1H-indol-2-yl]azetidine-1-carboxamide] | 1000 to 10000 nM |

Same assay, conditions: Human immunodeficiency virus 1; inhibition of acute HIV infection of T-lymphoid cells; read-out: IC95, spread assay

| SMILES | IC95 |
| --- | --- |
| O=C(COCc1ccccc1)Nc1[nH]c2ccc(Cl)cc2c1S(=O)(=O)c1ccccc1 [Example 6, 2-(benzyloxy)-N-[5-chloro-3-(phenylsulfonyl)-1H-indol-2-yl]acetamide] | < 1000 nM |
| CCC(=O)Nc1[nH]c2ccc(Cl)cc2c1S(=O)(=O)c1ccccc1 [Example 7, N-[5-chloro-3-(phenylsulfonyl)-1H-indol-2-yl]propanamide] | < 1000 nM |
| O=C(Nc1[nH]c2ccc(Cl)cc2c1S(=O)(=O)c1ccccc1)C1CCC1 [Example 9, N-[5-chloro-3-(phenylsulfonyl)-1H-indol-2-yl]cyclobutanecarboxamide] | < 1000 nM |
| O=C(CNC1CC1)Nc1[nH]c2ccc(Cl)cc2c1S(=O)(=O)c1ccccc1 [Example 12, N^1-[5-chloro-3-(phenylsulfonyl)-1H-indol-2-yl]-N^2-cyclopropylglycinamide] | < 1000 nM |
| O=C(Cc1ccc(F)cc1)Nc1[nH]c2ccc(Cl)cc2c1S(=O)(=O)c1ccccc1 [Example 16, N-[5-chloro-3-(phenylsulfonyl)-1H-indol-2-yl]-2-(4-fluorophenyl)acetamide] | < 1000 nM |
| O=C(CN1CCCC(F)(F)C1)Nc1[nH]c2ccc(Cl)cc2c1S(=O)(=O)c1ccccc1 [Example 17, N-[5-chloro-3-(phenylsulfonyl)-1H-indol-2-yl]-2-(3,3-difluoropiperidin-1-yl)acetamide] | < 1000 nM |
| O=C(Nc1[nH]c2ccc(Cl)cc2c1S(=O)(=O)c1ccccc1)c1ccc(F)cc1F [Example 18, N-[5-chloro-3-(phenylsulfonyl)-1H-indol-2-yl]-2,4-difluorobenzamide] | < 1000 nM |
| O=C(Nc1[nH]c2ccc(Cl)cc2c1S(=O)(=O)c1ccccc1)c1ccccc1F [Example 19, N-[5-chloro-3-(phenylsulfonyl)-1H-indol-2-yl]-2-fluorobenzamide] | < 1000 nM |
| O=C(Nc1[nH]c2ccc(Cl)cc2c1S(=O)(=O)c1ccccc1)c1ccncc1 [Example 20, N-[5-chloro-3-(phenylsulfonyl)-1H-indol-2-yl]isonicotinamide] | < 1000 nM |
| Cc1ccoc1C(=O)Nc1[nH]c2ccc(Cl)cc2c1S(=O)(=O)c1ccccc1 [Example 24, N-[5-chloro-3-(phenylsulfonyl)-1H-indol-2-yl]-3-methyl-2-furamide] | < 1000 nM |
| O=C(Nc1[nH]c2ccc(Cl)cc2c1S(=O)(=O)c1ccccc1)c1cccc(F)c1 [Example 25, N-[5-chloro-3-(phenylsulfonyl)-1H-indol-2-yl]-3-fluorobenzamide] | < 1000 nM |
| CCOC(=O)CNC(=O)Nc1[nH]c2ccc(Cl)cc2c1S(=O)(=O)c1ccccc1 [Example 27, ethyl N-({[5-chloro-3-(phenylsulfonyl)-1H-indol-2-yl]amino}carbonyl)glycinate] | < 1000 nM |
| O=C(Nc1[nH]c2ccc(Cl)cc2c1S(=O)(=O)c1ccccc1)c1ccccc1 [Example 28, N-[5-chloro-3-(phenylsulfonyl)-1H-indol-2-yl]benzamide] | < 1000 nM |
| O=C(Nc1cccc(F)c1)Nc1[nH]c2ccc(Cl)cc2c1S(=O)(=O)c1ccccc1 [Example 29, N-[5-chloro-3-(phenylsulfonyl)-1H-indol-2-yl]-N′-(3-fluorophenyl)urea] | < 1000 nM |
| COCC(=O)Nc1[nH]c2ccc(Cl)cc2c1S(=O)(=O)c1ccccc1 [Example 34, N-[5-chloro-3-(phenylsulfonyl)-1H-indol-2-yl]-2-methoxyacetamide] | < 1000 nM |
| O=C(Nc1ccccc1)Nc1[nH]c2ccc(Cl)cc2c1S(=O)(=O)c1ccccc1 [Example 35, N-[5-chloro-3-(phenylsulfonyl)-1H-indol-2-yl]-N′-phenylurea] | < 1000 nM |
| O=C(Nc1ccccc1C(F)(F)F)Nc1[nH]c2ccc(Cl)cc2c1S(=O)(=O)c1ccccc1 [Example 41, N-[5-chloro-3-(phenylsulfonyl)-1H-indol-2-yl]-N′-[2-(trifluoromethyl)phenyl]urea] | < 1000 nM |
| Cn1ccnc1CNCC(=O)Nc1[nH]c2ccc(Cl)cc2c1S(=O)(=O)c1ccccc1 [Example 42, N^1-[5-chloro-3-(phenylsulfonyl)-1H-indol-2-yl]-N^2-[(1-methyl-1H-imidazol-2-yl)methyl]glycinamide] | < 1000 nM |
| Cc1cccc(CNC(=O)Nc2[nH]c3ccc(Cl)cc3c2S(=O)(=O)c2ccccc2)c1 [Example 43, N-[5-chloro-3-(phenylsulfonyl)-1H-indol-2-yl]-N′-(3-methylbenzyl)urea] | < 1000 nM |
| O=C(Nc1[nH]c2ccc(Cl)cc2c1S(=O)(=O)c1ccccc1)NC1CCCC1 [Example 44, N-[5-chloro-3-(phenylsulfonyl)-1H-indol-2-yl]-N′-cyclopentylurea] | < 1000 nM |

| SMILES | IC95 |
| --- | --- |
| CC1(CNCC(=O)Nc2[nH]c3ccc(Cl)cc3c2S(=O)(=O)c2ccccc2)COC1 [Example 45, N^1-[5-chloro-3-(phenylsulfonyl)-1H-indol-2-yl]-N^2-[(3-methyloxetan-3-yl)methyl]glycinamide] | < 1000 nM |
| CCC(C)NC(=O)Nc1[nH]c2ccc(Cl)cc2c1S(=O)(=O)c1ccccc1 (centres unmarked) [Example 46, N-(sec-butyl)-N′-[5-chloro-3-(phenylsulfonyl)-1H-indol-2-yl]urea] | < 1000 nM |
| O=C(Nc1[nH]c2ccc(Cl)cc2c1S(=O)(=O)c1ccccc1)C1CCCC1 [Example 47, N-[5-chloro-3-(phenylsulfonyl)-1H-indol-2-yl]cyclopentanecarboxamide] | < 1000 nM |
| CCCCNC(=O)Nc1[nH]c2ccc(Cl)cc2c1S(=O)(=O)c1ccccc1 [Example 48, N-butyl-N′-[5-chloro-3-(phenylsulfonyl)-1H-indol-2-yl]urea] | < 1000 nM |
| O=C(NCCc1ccccc1)Nc1[nH]c2ccc(Cl)cc2c1S(=O)(=O)c1ccccc1 [Example 49, N-[5-chloro-3-(phenylsulfonyl)-1H-indol-2-yl]-N′-(2-phenylethyl)urea] | 1000 to 10000 nM |
| O=C(NCc1cccc(F)c1)Nc1[nH]c2ccc(Cl)cc2c1S(=O)(=O)c1ccccc1 [Example 50, N-[5-chloro-3-(phenylsulfonyl)-1H-indol-2-yl]-N′-(3-fluorobenzyl)urea] | < 1000 nM |
| COc1cccc(CNCC(=O)Nc2[nH]c3ccc(Cl)cc3c2S(=O)(=O)c2ccccc2)c1 [Example 51, N^1-[5-chloro-3-(phenylsulfonyl)-1H-indol-2-yl]-N^2-(3-methoxybenzyl)glycinamide] | < 1000 nM |
| O=C(NCc1ccc(F)cc1)Nc1[nH]c2ccc(Cl)cc2c1S(=O)(=O)c1ccccc1 [Example 52, N-[5-chloro-3-(phenylsulfonyl)-1H-indol-2-yl]-N′-(4-fluorobenzyl)urea] | < 1000 nM |
| CS(=O)(=O)N1CCN(CC(=O)Nc2[nH]c3ccc(Cl)cc3c2S(=O)(=O)c2ccccc2)CC1 [Example 53, N-[5-chloro-3-(phenylsulfonyl)-1H-indol-2-yl]-2-[4-(methylsulfonyl)piperazin-1-yl]acetamide] | < 1000 nM |
| O=C(CN1CCC(c2ccccn2)C1)Nc1[nH]c2ccc(Cl)cc2c1S(=O)(=O)c1ccccc1 (centres unmarked) [Example 56, N-[5-chloro-3-(phenylsulfonyl)-1H-indol-2-yl]-2-(3-pyridin-2-ylpyrrolidin-1-yl)acetamide] | < 1000 nM |
| O=C(Nc1[nH]c2ccc(Cl)cc2c1S(=O)(=O)c1ccccc1)NC1CCCCC1 [Example 57, N-[5-chloro-3-(phenylsulfonyl)-1H-indol-2-yl]-N′-cyclohexylurea] | < 1000 nM |
| O=C(Nc1[nH]c2ccc(Cl)cc2c1S(=O)(=O)c1ccccc1)NC1CC1c1ccccc1 (centres unmarked) [Example 58, N-[5-chloro-3-(phenylsulfonyl)-1H-indol-2-yl]-N′-(2-phenylcyclopropyl)urea] | < 1000 nM |
| CC(NCC(=O)Nc1[nH]c2ccc(Cl)cc2c1S(=O)(=O)c1ccccc1)c1ccccc1 (centres unmarked) [Example 59, 2-{[5-chloro-3-(phenylsulfonyl)-1H-indol-2-yl]amino}-2-oxo-N-(1-phenylethyl)ethanamine] | < 1000 nM |
| O=C(Nc1[nH]c2ccc(Cl)cc2c1S(=O)(=O)c1ccccc1)C1CCCCC1 [Example 60, N-[5-chloro-3-(phenylsulfonyl)-1H-indol-2-yl]cyclohexanecarboxamide] | < 1000 nM |
| CN1CCN(CC(=O)Nc2[nH]c3ccc(Cl)cc3c2S(=O)(=O)c2ccccc2)CC1 [Example 61, N-[5-chloro-3-(phenylsulfonyl)-1H-indol-2-yl]-2-(4-methylpiperazin-1-yl)acetamide] | < 1000 nM |
| CC(C)NC(=O)Nc1[nH]c2ccc(Cl)cc2c1S(=O)(=O)c1ccccc1 [Example 62, N-[5-chloro-3-(phenylsulfonyl)-1H-indol-2-yl]-N′-isopropylurea] | < 1000 nM |
| O=C(COc1ccccc1)Nc1[nH]c2ccc(Cl)cc2c1S(=O)(=O)c1ccccc1 [Example 65, N-[5-chloro-3-(phenylsulfonyl)-1H-indol-2-yl]-2-phenoxyacetamide] | < 1000 nM |
| O=C(Nc1cc(F)cc(F)c1)Nc1[nH]c2ccc(Cl)cc2c1S(=O)(=O)c1ccccc1 [Example 66, N-[5-chloro-3-(phenylsulfonyl)-1H-indol-2-yl]-N′-(3,5-difluorophenyl)urea] | < 1000 nM |
| O=C(Nc1cccc(C(F)(F)F)c1)Nc1[nH]c2ccc(Cl)cc2c1S(=O)(=O)c1ccccc1 [Example 68, N-[5-chloro-3-(phenylsulfonyl)-1H-indol-2-yl]-N′-[3-(trifluoromethyl)phenyl]urea] | < 1000 nM |
| O=C(NCc1c(F)cccc1Cl)Nc1[nH]c2ccc(Br)cc2c1S(=O)(=O)N1CCCC1 [Example 95, N-[5-bromo-3-(pyrrolidin-1-ylsulfonyl)-1H-indol-2-yl]-N′-(2-chloro-6-fluorobenzyl)urea] | < 1000 nM |
